Measured values as given in patent US20040092402A1, “Pyrimidine derivatives and herbicides containing the same” (priority 2000, published 2004).
Values joined by “and” are separate entries in the source; they are usually repeats but may differ in a detail not shown here. Equal values may be shown once.

Compound	melting point
COc1cc(-c2ncnc(C(F)(F)F)c2Cl)c(F)cc1Cl [A-1, 5-chloro-4-(4-chloro-2-fluoro-5-methoxyphenyl)-6-trifluoromethylpyrimidine]	112 to 113 °C and 109 to 111 °C
C#CCOc1cc(-c2ncnc(C(F)(F)F)c2Cl)c(F)cc1Cl [A-3, 5-Chloro-4-(4-chloro-2-fluoro-5-propargyloxyphenyl)-6-trifluoromethylpyrimidine]	112 to 113 °C
CCS(=O)(=O)Nc1cc(-c2ncnc(C(F)(F)F)c2Cl)c(F)cc1C#N [A-16, 5-chloro-4-[4-cyano-5-(N-ethanesulfonylamino)-2-fluorophenyl]-6-trifluoromethylpyrimidine]	188 to 189 °C and 191 to 194 °C
CCS(=O)(=O)N(C(C)=O)c1cc(-c2ncnc(C(F)(F)F)c2Cl)c(F)cc1C#N [A-23, 4-[5-(N-acetyl-N-ethanesulfonylamino)-4-cyano-2-fluorophenyl]-5-chloro-6-trifluoromethylpyrimidine]	144 to 146 °C
C=CCOc1cc(-c2ncnc(C(F)F)c2Cl)c(F)cc1Cl [D-2, 4-(5-Allyloxy-4-chloro-2-fluorophenyl)-5-chloro-6-difluoromethylpyrimidine]	69 to 71 °C and 67 to 71 °C
Fc1cc(Cl)c(OC(F)F)cc1-c1ncnc(C(F)F)c1Cl [D-7, 5-Chloro-4-[4-chloro-2-fluoro-5-(difluoromethoxy)phenyl]-6-difluoromethylpyrimidine]	56 to 57 °C
CCS(=O)(=O)Nc1cc(-c2ncnc(C(F)F)c2Cl)c(F)cc1Cl [D-14, 5-Chloro-4-(4-chloro-5-ethylsulfonylamino-2-fluoro-phenyl)-6-difluoromethylpyrimidine]	138 to 139 °C
CCS(=O)(=O)Nc1cc(-c2ncnc(C(F)F)c2Cl)c(Cl)cc1Cl [D-16, 5-Chloro-4-(2,4-dichloro-5-ethylsulfonylaminophenyl)-6-difluoromethylpyrimidine]	140 to 142 °C
CC(=O)Nc1cc(-c2ncnc(C(F)F)c2Cl)c(F)cc1C#N [D-21, 4-(5-Acetylamino-4-cyano-2-fluorophenyl)-5-chloro-6-difluoromethylpyrimidine]	160 to 162 °C
CCS(=O)(=O)Nc1cc(-c2ncnc(C(F)F)c2Cl)c(F)cc1C#N [D-26, 5-Chloro-4-[4-cyano-5-(ethylsulfonylamino)-2-fluoro-phenyl]-6-difluoromethylpyrimidine]	200 to 202 °C
CCS(=O)(=O)N(C(C)=O)c1cc(-c2ncnc(C(F)F)c2Cl)c(F)cc1C#N [D-27, 4-[5-(N-acetyl-N-ethylsulfonylamino)-4-cyano-2-fluorophenyl]-5-chloro-6-difluoromethylpyrimidine]	121 to 122 °C
COC(=O)c1cc(-c2ncnc(C(F)F)c2Cl)c(F)cc1Cl [D-41, 2-Chloro-4-fluoro-5-(5-chloro-6-difluoromethyl-pyrimidin-4-yl)benzoic acid methyl ester]	100 to 101 °C
C#CCSc1cc(-c2ncnc(C(F)F)c2Cl)c(F)cc1Cl [D-48, 5-Chloro-4-(4-chloro-2-fluoro-5-propargylthio-phenyl)-6-difluoromethylpyrimidine]	95 to 97 °C
CC(C)NS(=O)(=O)c1cc(-c2ncnc(C(F)F)c2Cl)c(F)cc1Cl [D-50, 2-Chloro-5-(5-chloro-6-difluoromethylpyrimidin-4-yl)-4-fluoro-N-isopropylbenzenesulfonamide]	172 to 175 °C
Cc1ncnc(-c2ccc(Cl)cc2F)c1Cl [E-1, 4-(4-Chloro-2-fluorophenyl)-5-chloro-6-methyl-pyrimidine]	77 to 79 °C
CCS(=O)(=O)Nc1cc(-c2ncnc(C)c2Cl)c(F)cc1C#N [E-10, 5-Chloro-4-[4-cyano-5-(ethylsulfonylamino)-2-fluoro-phenyl]-6-methylpyrimidine]	182 to 184 °C
CCS(=O)(=O)Nc1cc(-c2ncnc(C(C)C)c2Cl)c(F)cc1C#N [E-13, 5-Chloro-4-[4-cyano-5-(ethylsulfonylamino)-2-fluoro-phenyl]-6-isopropylpyrimidine]	160 to 162 °C
C#CCOc1cc(-c2ncnc(C(Cl)Cl)c2Cl)c(F)cc1Cl [E-19, 5-Chloro-4-(4-chloro-2-fluoro-5-propargyloxyphenyl)-6-dichloromethylpyrimidine]	86 to 88 °C
COc1cc(-c2ncnc(OC)c2Cl)c(F)cc1Cl [H-1, 5-Chloro-4-(4-chloro-2-fluoro-5-methoxyphenyl)-6-methoxypyrimidine]	142 to 143 °C
CCS(=O)(=O)Nc1cc(-c2ncnc(OC)c2Cl)c(F)cc1C#N [H-7, 5-Chloro-4-[4-cyano-5-(ethylsulfonylamino)-2-fluorophenyl]-6-methoxypyrimidine]	149 to 150 °C
CCS(=O)(=O)Nc1cc(-c2ncnc(Cl)c2Cl)c(F)cc1C#N [H-16, 4,5-Dichloro-6-[4-cyano-5-(ethylsulfonylamino)-2-fluorophenyl]pyrimidine]	149 to 150 °C
CCS(=O)(=O)Nc1cc(C2(NC)NC=NC=C2Cl)c(F)cc1C#N (stereo not shown) [H-20, 5-Chloro-6-[4-cyano-5-(ethylsulfonylamino)-2-fluoro-phenyl]-6-methylaminopyrimidine]	211 to 212 °C
CCS(=O)(=O)Nc1cc(-c2ncnc(NOC)c2Cl)c(F)cc1C#N [H-27, 5-Chloro-4-[4-cyano-5-(ethylsulfonylamino)-2-fluoro-phenyl]-6-methoxyaminopyrimidine]	188 to 189 °C

Second part, the compound after the results:

melting point	Compound
156 to 157 °C	COC1(F)C=C(Cl)C=CC1c1ncnc(C)c1C (stereo not shown) [J-1, 4-(4-Chloro-2-fluoro-2-methoxyphenyl)-5,6-dimethyl-pyrimidine]
131 to 133 °C	C#CCOc1cc(-c2ncnc(C)c2C)c(F)cc1Cl [J-3, 4-(4-Chloro-2-fluoro-5-propargyloxyphenyl)-5,6-dimethyl pyrimidine]
144 to 146 °C	COc1cc(-c2ncnc(C(F)(F)F)c2C)c(F)cc1Cl [J-5, 4-(4-Chloro-2-fluoro-5-methoxyphenyl)-5-methyl-6-trifluoromethylpyrimidine]
90 to 92 °C	C#CCOc1cc(-c2ncnc(C(F)(F)F)c2C)c(F)cc1Cl [J-7, 4-(4-Chloro-2-fluoro-5-propargyloxyphenyl)-5-methyl-6-trifluoromethylpyrimidine]
123 to 124 °C	CCS(=O)(=O)N(C(C)=O)c1cc(-c2ncnc(C(F)F)c2Cl)c(F)cc1C#N [J-14, 4-[5-(N-acetyl-N-ethylsulfonylamino)-4-cyano-2-fluorophenyl]-5-chloro-6-difluoromethylpyrimidine]
218 to 220 °C	COc1ncnc(-c2cc(NS(C)(=O)=O)c(C#N)cc2F)c1C [J-16, 4-(4-cyano-5-methylsulfonylamino-2-fluorophenyl)-6-methoxy-5-methylpyrimidine]
183 to 185 °C	COc1cc(-c2ncnc(OC)c2C#N)c(F)cc1Cl [K-1, 4-(4-Chloro-2-fluoro-5-methoxyphenyl)-5-cyano-6-methoxypyrimidine]
187 to 189 °C	CCS(=O)(=O)Nc1cc(-c2ncnc(OC)c2C#N)c(F)cc1C#N [K-3, 4-(4-Cyano-5-ethylsulfonylamino-2-fluorophenyl)-5-cyano-6-methoxypyrimidine]
142 to 144 °C	COC(=O)c1cc(-c2ncnc(C)c2C#N)c(F)cc1Cl [K-19, Methyl 2-chloro-5-(5-cyano-6-methylpyrimidin-4-yl)-4-fluorobenzoate]
160 to 162 °C	COc1ncnc(-c2cc(NS(C)(=O)=O)c(Cl)cc2Cl)c1C#N [K-20, 4-(2,4-Dichloro-5-methylsulfonylaminophenyl)-5-cyano-6-methoxypyrimidine]
161 to 163 °C	COc1cc(-c2ncnc(OC)c2C=O)c(F)cc1Cl [L-1, 4-(4-Chloro-2-fluoro-5-methoxyphenyl)-5-formyl-6-methoxypyrimidine]
